Measurements from US4717722A, “Substituted 1-oxa-dethiacephalosporins as anti-inflammatory and antidegenerative agents” (Merck & Co., Inc., priority 1984, dated 1988).

Target: T1, Human Polymorphonuclear Leukocyte Elastase (Homo sapiens, UniProt P08246)
T1 construct: Crude extract of human polymorphonuclear leukocytes (PMN) containing elastase activity; endogenous in cells; host or cells: human polymorphonuclear leukocytes (PMN), crude extract
T1 sequence (P08246 30-247 limits assumed): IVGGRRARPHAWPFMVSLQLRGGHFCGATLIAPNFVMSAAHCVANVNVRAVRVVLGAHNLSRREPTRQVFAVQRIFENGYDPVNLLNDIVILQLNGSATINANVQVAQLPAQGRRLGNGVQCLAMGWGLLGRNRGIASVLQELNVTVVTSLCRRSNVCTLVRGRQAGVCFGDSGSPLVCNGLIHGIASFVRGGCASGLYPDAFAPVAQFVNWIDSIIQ
Experiment: Inhibition of human polymorphonuclear leukocyte elastase via hydrolysis of Boc-AAPAN
Assay type: biochemical
Details: effective dosage for 50% inhibition of the enzyme activity 2 minutes after zero time; crude PMN extract, 0.2 mM Boc-AAPAN, pH 7.5; read-out: ED50 (the source's name) (converted)
Method: Enzyme Assays for the Inhibition of Human Polymorphonuclear Leukocyte Elastase Via Hydrolysis of N-t-Boc-alanyl-alanyl-prolylalanine-p-nitroanilide Reagents
0.05 M TES (N-tris[hydroxymethyl]methyl-2-amino-ethanesulfonic acid) Buffer, pH 7.5.
0.2 mM N-t-Boc-alanyl-alanyl-prolyl-alanine-p-nitroanilide (Boc-AAPAN).
To prepare substrate, the solid (m.w. 550) was first dissolved in 10.0 ml DMSO. Buffer at pH 7.5 was then added to a final volume of 100 ml.
Crude extract of human polymorphonuclear leukocytes (PMN) containing elastase activity.
Inhibitors (cephalosporin sulfone esters) to be tested dissolved in DMSO just before use.
To 1.0 ml of 0.2 mM Boc-AAPAN in a cuvette, 0.01-0.1 ml of DMSO with or without inhibitor was added. After mixing, a measurement was taken at 410 mμ to detect any spontaneous hydrolysis due to presence of test compound. 0.05 Milliliters of PMN extract was then added and the ΔOD/min at 410 mμ was measured and recorded. Beckman model 35 spectrophotometer was used.
Results were reported as ED50, i.e., effective dosage in micrograms per milliliter (μg/ml) for 50% inhibition of the enzyme activity 2 minutes after zero time.
The elastase activity in the crude PMN extract may vary from one preparation to another. A control of each new batch is run, and the volume added in the assay procedure is adjusted according to activity.

Compound | IC50 [µM]
COC(=O)C1=C(CSc2nnnn2C)COC2N1C(=O)C2(NC(=O)C(C(=O)OC)c1ccc(O)cc1)OC (stereo not shown) | ≥ 36.5
COC1(NC(=O)C(C(=O)OCc2ccccc2)c2ccc(O)cc2)C(=O)N2C(C(=O)OCc3ccccc3)=C(C)COC21 (stereo not shown) | 29
CC1=COC2C(NC(=O)c3ccccc3)C(=O)N2C1C(=O)OCc1ccccc1 (stereo not shown) | 12.7
CC1=C(C(=O)OCc2ccccc2)N2C(=O)C(NC(=O)c3ccccc3)C2OC1 (stereo not shown) [C6 H5 CONH] | 51
